Here are results for 14 compounds from patent publication US4138423A, “N-dithio carbamoyl oximes” (priority 1976, dated 1979).

Broadly, the LD50 is the dose expected to kill half of the subjects tested.

Values after ≈ are worked out from the molar mass of the structure shown. A value given as a limit tells only on which side of the number the result lay.

One data set relates to Mexican bean beetle. In words: Mexican Bean Beetle Leaf Spray Test. The following applies: Epilachna varivestis, read-out: Beetle LD50. As for the experimental part:
(§1) The test procedures were as follows:
The closed dishes were labeled and held at a temperature of 80±5° F. for three days. Although the larvae could easily consume the leaf within 24 to 48 hours, no more food was added.

The next data set concerns house flies. Kind of data set: Fly Bait Test. The following applies: Musca domestica, read-out: Fly LD50.
Another data set concerns southern armyworm. Kind of data set: Southern Armyworm Leaf Spray Test. The following applies: Spodoptera eridania, read-out: Armyworm LD50.
Data set [1] can be described thus: peroral toxicity to mammals (rat). The following applies: in vivo, po, peroral, Table I, read-out: A.O. Rat. LD50. As for the experimental part: (§2) Certain of these compositions were also evaluated to determine their peroral toxicity to mammals. The animal selected for this experiment was the rat. The test results obtained are expressed in terms of the number of milligrams of compositions per kilogram of weight of the animal required to achieve a mortality rate of 50 percent (LD50).

In a further data set the test system is bean aphid. Kind of data set: whole plant or invertebrate. The conditions noted are these: foliar, read-out: Aphid LD50.
The next data set concerns two-spotted mite. In words: Mite Foliage Spray Test. The conditions noted are these: Tetranychus urticae, foliar, read-out: Mite LD50. As for the experimental part:
as §1
Adults and nymphal stages of the two-spotted mite (Tetranychus urticae Koch), reared on Tendergreen bean plants at 80±5° percent relative humidity, were the test organisms. Infested leaves from a stock culture were placed on the primary leaves of two bean plants six to eight inches in height, growing in a two- and-a-half inch clay pot. 150-200 mites, a sufficient number for testing, transferred from the excised leaves to the fresh plants in a period of twenty four hours. Following the twenty four hour transfer period, the excised leaves were removed from the infested plants. […] The sprayed plants were held at 80±5 percent relative humidity for six days, after which a mortality count of motile forms was made. […] Any individual which was capable of locomotion upon prodding was considered living.

For data set [2], the system named is cotton, tomatoes, beans and corn. Kind of data set: phytotoxicity to crops. The conditions noted are these: compared with N-methyl carbamate compounds.
Another data set deals with rat. Kind of data set: peroral toxicity to mammals (rat). The following applies: in vivo, po. As for the experimental part: as §2

Procedure for house flies: The test concentrations in parts per million by weight employed in the tests described hereinbelow were obtained by appropriate dilutions of the stock suspension with water. The test procedures were as follows:
Four to six day old adult house flies (Musca domestica, L.) reared according to the specifications of the Chemical Specialities Manufacturing Association (Blue Book, McNair-Dorland Co., N.Y. 1954; pages 243-244, 261) under controlled conditions of 80±5° F. and 50±5 percent relative humidity, were the test insects. The flies were immobilized by anesthetizing with carbon dioxide and twenty five immobilized individuals,males and females, were transferred to a cage consisting of a standard food strainer about five inches in diameter which was inverted over a wrapping-paper-covered surface. […] Ten milliliters of the test formulation were added to a souffle cup containing a one-inch square of an absorbent cotton pad. This bait cup was introduced and centered on the blotting paper under the food strainer prior to admitting the anesthetized flies. The caged flies were allowed to feed on the bait for twenty four hours, at a temperature of 80±5° F. and the relative humidity of 50±5 percent.
(§3) The test procedures described above were employed in these experiments in order to determine the LD50 (number of parts per million of active ingredients required to achieve fifty percent mortality of the insects tested) for each of the compositions tested.
Procedure for southern armyworm: The thus-prepared stock suspension contained 0.5 percent by weight of compound. The test concentrations in parts per million by weight employed in the tests described hereinbelow were obtained by appropriate dilutions of the stock suspension with water. The test procedures were as follows:
Larvae of the southern armyworm (Prodenia eridania, (Cram.)), reared on Tendergreen bean plants at a temperature of 80±5° F. and a relative humidity of 50±5 percent, constituted the test insects.
Potted Tendergreen bean plants of standard height and age were placed on a revolving turntable and sprayed with 100-110 milliliters of test compound formulation by use of a DeVilbiss spray gun set at 10 psig air pressure. This application, which lasted 25 seconds, was sufficient to wet plants to run-off. As a control, 100-110 milliliters of a water-acetone-emulsifier solution containing no test compound were also sprayed on infested plants. When dry, the paired leaves were separated and each one was placed in a 9 centimeter Petri dish lined with moistened filter paper. Five randomly selected larvae were introduced into each dish and the dishes were closed. The closed dishes were labeled and held at 80-85° F. for three days. Although the larvae could easily consume the whole leaf within twenty-four hours, no more food was added. Larvae which were unable to move the length of the body, even upon stimulation by prodding, were considered dead. Percent mortality was recorded for various concentration levels.
as §3

`CSC(C)=NOC(=O)N(C)SSC(C)(C)C` [Example I, 1-Methylthioacetaldehyde O-[N-methyl-N-(2-methyl-2-propanethiosulfenyl)carbamoyl]oxime]: the LC50 in the data set on Mexican bean beetle turned out to be 40 µg/mL (≈ 142 µM); in the data set with house flies it was 4 µg/mL (≈ 14.2 µM); in the data set with southern armyworm it was 6 µg/mL (≈ 21.2 µM). In data set [1], the LD50 was 143 mg/kg. Take `CSC(C)=NOC(=O)N(C)SSC(C)(C)C` [Example II (Table II)]: the figures for the LC50 with bean aphid and in the data set with two-spotted mite were 1.3 µg/mL (≈ 4.6 µM) and > 500 µg/mL, respectively.

As for `CSC(C)=NOC(=O)N(C)SSC1CCCCC1` [Example II, 1-Methylthioacetaldehyde O-[N-methyl-N-(cyclohexanethiosulfenyl)carbamoyl]oxime], in data set [1], the LD50 worked out at 101 mg/kg. As for `CC(=NOC(=O)N(C)SSC(C)(C)C)SC(C)C` [Example III (Table II)], the results for the LC50 in the data set with bean aphid and in the data set with two-spotted mite were 9 µg/mL (≈ 29 µM) and 125 µg/mL (≈ 403 µM), respectively. In the case of `CSC(C)=NOC(=O)N(C)SSc1ccc(Cl)cc1` [Example III, 1-Methylthioacetaldehyde O-[N-methyl-N-(4-chlorophenylthiosulfenyl)carbamoyl]oxime], the LD50 in data set [1] stood at 160 mg/kg. Still for that read-out and setting: under `CC(=NOC(=O)N(C)SSC(C)C)SCCC#N` [IV] stands 14.1 mg/kg. Same read-out and setting: under `CSC(C)=NOC(=O)N(C)SSc1ccccc1` [IX, 1-Methylthioacetaldehyde O-[N-methyl-N-(phenylthiosulfenyl)carbamoyl]oxime] stands 143 mg/kg. `CNC(=O)ON=C(C)SC` [Methomyl, reference compound]: the LC50 in the data set with Mexican bean beetle is 70 µg/mL (≈ 432 µM); in the data set with two-spotted mite it was > 500 µg/mL; in the data set on house flies, 4 µg/mL (≈ 24.7 µM); in the data set on southern armyworm, 11 µg/mL (≈ 67.8 µM). Further, the “phytotoxicity to important economic crops” value in data set [2] is given as “highly susceptible to phytotoxic injury”. Besides, the “Rat LD50” value in the data set with rat came out at 48 mg/kg. Turning to `CSC(C)=NOC(=O)N(C)SSc1ccc(C)cc1` [X, 1-Methylthioacetaldehyde O-[N-methyl-N-(4-methylphenylthiosulfenyl)carbamoyl]oxime], the LD50 in data set [1] came out at 63.5 mg/kg.

Turning to `CC(=NOC(=O)N(C)SSC(C)(C)C)SCCC#N` [XIII], in data set [1], the LD50 was determined as 10 mg/kg. As for `CC(=NOC(=O)N(C)SSC(C)(C)C)SC(C)C` [XII], the figures for the LC50 in the data set with Mexican bean beetle, with house flies and in the data set on southern armyworm were 31 µg/mL (≈ 99.8 µM), 42 µg/mL (≈ 135 µM) and 35 µg/mL (≈ 113 µM), respectively. In data set [1], the LD50 stood at 30.8 mg/kg.

As for `CSC(C)(C)C=NOC(=O)N(C)SSc1ccc(Cl)cc1` [XIV], the LD50 in data set [1] is 2 mg/kg. Regarding `CSC(C)=NOC(=O)N(C)SSc1ccc(C(C)(C)C)cc1` [XI], in data set [1], the LD50 came to 180 mg/kg. Still for that read-out and setting: under `CSC(C)=NOC(=O)N(C)SSC(C)C` [XV] stands 113 mg/kg.
